# Experimental data from patent US8183239B2, “Substituted piperazines and piperidines as modulators of the neuropeptide Y2 receptor” (Janssen Pharmaceutica NV, priority 2005, dated 2012).
# pIC50: −log10 of the molar value.
# Experiments:
# [1] = test system: rats; conditions: icv administration; cited from earlier work
# [2] = target: T1, Y2 receptors (Homo sapiens, UniProt P49146); experiment: Radioligand binding assay ([125I]PYY, KAN-Ts cell membranes); conditions: Table 1, [125I]PYY 80 pM, average of results, read-out: IC50
# T1 construct: endogenous in cells; host or cells: KAN-Ts cells (membranes)
# T1 sequence (P49146 1-381): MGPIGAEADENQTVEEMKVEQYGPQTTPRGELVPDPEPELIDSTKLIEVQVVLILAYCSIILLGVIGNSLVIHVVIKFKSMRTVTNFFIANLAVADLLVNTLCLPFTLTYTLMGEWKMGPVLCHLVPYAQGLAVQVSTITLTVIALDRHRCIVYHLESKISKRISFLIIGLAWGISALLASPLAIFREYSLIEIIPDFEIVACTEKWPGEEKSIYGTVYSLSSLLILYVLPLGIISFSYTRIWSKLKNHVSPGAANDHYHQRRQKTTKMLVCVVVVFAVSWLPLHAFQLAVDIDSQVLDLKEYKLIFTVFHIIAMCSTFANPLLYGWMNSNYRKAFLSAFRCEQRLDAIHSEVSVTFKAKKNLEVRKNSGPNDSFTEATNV
# Method in brief: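 IC50 values are means of three to eight experiments run in duplicate, fitted sigmoidally against specific binding (defined by […]). Competition used 80 pM [^125I]PYY for 1 h at room temperature on KAN-Ts membranes carrying native Y2, with filtration and scintillation counting.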
# [3] = target: T1, Y2 receptors; experiment: [35S]GTPγS binding assay in KAN-Ts cells (inhibition of PYY-stimulated binding); assay type: biochemical; conditions: KAN-Ts membranes
# Description: [^35S] GTPγS binding assay in KAN-Ts cells
# Membranes from KAN-Ts cells were prepared as described above. Membranes were thawed on ice and diluted in 50 mM Tris-HCl buffer, pH 7.4 containing 10 mM MgCl2, 1 mM EDTA, 100 mM NaCl, […], 0.25% BSA. Assay mixture ([…]) were preincubated with compounds for 30 min at rt. Then, […] of [^35S]GTPγS in assay buffer was added to a final concentration of 200 pM and the assay mixtures were incubated for 1 h at rt. Reactions were terminated by rapid filtration thought GF/C filters. Filters were washed twice with ice cold 50 mM Tris-HCl, pH 7.4 containing 10 mM MgCl2. Basal [^35S]GTPγS was measured in the absence of compounds. In initial experiments, nonspecific binding was measured in the presence of […]. This nonspecific binding never exceeded 10% of basal binding and was thus not subtracted from experimental data. Stimulation of [^35S]GTPγS is presented as percentage over basal and was calculated as one hundred times the difference between stimulated and basal binding (in cpm). […] EC50 (concentration of compound at which 50% of its own maximal stimulation is obtained) and IC50 (concentration of its own maximal inhibition of PYY-stimulated [^35S]GTPγS binding is obtained) were derived from the curves. IC50 values were corrected as follows: corrected IC50 (IC50corr)=IC50/(1+[PYY]/EC50 (PYY)) and pIC50corr=−log IC50corr.
pIC50 [2],functional behaviour in [35S]GTPγS assay [3],Structure (SMILES),ethanol self-administration [1]
,,N=C(N)NCCC[C@H](NC(=O)CC1(CC(=O)N2CCN(C3c4ccccc4NC(=O)c4ccccc43)CC2)CCCC1)C(=O)NCCn1c(=O)n(-c2ccccc2)n(-c2ccccc2)c1=O (stereo partly drawn) [BIIE0246],dose dependently reduced ethanol self-administration
7.82,antagonist,"CCNC(=O)C(c1ccccc1)C1CCN(c2ccc(NC(=O)Nc3c(C)noc3C)cc2F)CC1 (stereo not drawn) [Example 10, 2-(1-{4-[3-(3,5-Dimethyl-isoxazol-4-yl)-ureido]-2-fluoro-phenyl}-piperidin-4-yl)-N-ethyl-2-phenyl-acetamide]",
